Test results taken from ChEMBL document CHEMBL3639083, “6,7-unsaturated-7-carbamoyl substituted morphinan derivative” (2013).
pKi: −log10 of the molar value.

Key:
Mu-type opioid receptor = Mu-type opioid receptor (Rattus norvegicus, UniProt P33535); experiment: (§1) Binding Assay: Binding assay of opioid receptor.
[1] = molecular target: Delta-type opioid receptor (Rattus norvegicus, UniProt P33533); experiment: as §1
Chain of Delta-type opioid receptor (P33533 whole entry): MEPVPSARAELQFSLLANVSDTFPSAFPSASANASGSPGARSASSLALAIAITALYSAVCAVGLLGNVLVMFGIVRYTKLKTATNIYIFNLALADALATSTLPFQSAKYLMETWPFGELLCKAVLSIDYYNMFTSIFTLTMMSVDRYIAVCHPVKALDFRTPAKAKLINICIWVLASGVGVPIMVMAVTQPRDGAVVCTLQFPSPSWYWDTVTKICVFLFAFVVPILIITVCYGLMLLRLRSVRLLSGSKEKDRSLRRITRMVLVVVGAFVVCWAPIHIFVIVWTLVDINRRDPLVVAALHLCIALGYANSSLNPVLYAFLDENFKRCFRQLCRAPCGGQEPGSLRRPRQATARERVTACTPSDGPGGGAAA

Chain of Mu-type opioid receptor (P33535 whole entry): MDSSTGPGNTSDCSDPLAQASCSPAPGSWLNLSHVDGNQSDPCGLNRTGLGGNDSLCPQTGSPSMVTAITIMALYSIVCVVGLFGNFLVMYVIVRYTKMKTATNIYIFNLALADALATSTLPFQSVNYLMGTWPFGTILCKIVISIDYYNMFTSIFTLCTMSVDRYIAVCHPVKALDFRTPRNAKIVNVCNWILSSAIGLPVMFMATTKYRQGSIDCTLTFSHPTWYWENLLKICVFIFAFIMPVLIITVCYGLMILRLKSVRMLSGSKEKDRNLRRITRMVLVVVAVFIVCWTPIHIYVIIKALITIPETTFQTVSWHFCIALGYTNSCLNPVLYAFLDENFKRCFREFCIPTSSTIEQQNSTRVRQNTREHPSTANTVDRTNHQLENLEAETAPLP

Row | Compound | pKi (Mu-type opioid receptor) | pKi [1]
1 | COc1ccc(NC(=O)C2=C(O)[C@@H]3Oc4c(O)ccc5c4[C@@]34CCN(CC3CC3)[C@H](C5)[C@]4(O)C2)cn1 | 8.64 | 7.56
2 | CC(C)NC(=O)C1=C(NS(=O)(=O)c2ccc(Cl)cc2)[C@@H]2Oc3c(O)ccc4c3[C@@]23CCN(CC2CC2)[C@H](C4)[C@]3(O)C1 | 7.96 | 9.25
